Experiment [1] deals with T1, butyrylcholinesterase (BuChE), equine (Equus caballus, UniProt P81908).
T1 construct: gene BCHE
As to the kind of experiment: Ellman spectrophotometric assay ([…] nm). The class given is biochemical. Background: DTNB colorimetry detects thiols as they appear.

Experiment [2] addresses acetylcholinesterase (AChE), electric eel, type VI-S (Electrophorus electricus, UniProt O42275). As to the kind of experiment: Ellman spectrophotometric assay ([…] nm). It is filed as biochemical.

pIC50: −log10 of the molar value.

T1 sequence (P81908 whole entry): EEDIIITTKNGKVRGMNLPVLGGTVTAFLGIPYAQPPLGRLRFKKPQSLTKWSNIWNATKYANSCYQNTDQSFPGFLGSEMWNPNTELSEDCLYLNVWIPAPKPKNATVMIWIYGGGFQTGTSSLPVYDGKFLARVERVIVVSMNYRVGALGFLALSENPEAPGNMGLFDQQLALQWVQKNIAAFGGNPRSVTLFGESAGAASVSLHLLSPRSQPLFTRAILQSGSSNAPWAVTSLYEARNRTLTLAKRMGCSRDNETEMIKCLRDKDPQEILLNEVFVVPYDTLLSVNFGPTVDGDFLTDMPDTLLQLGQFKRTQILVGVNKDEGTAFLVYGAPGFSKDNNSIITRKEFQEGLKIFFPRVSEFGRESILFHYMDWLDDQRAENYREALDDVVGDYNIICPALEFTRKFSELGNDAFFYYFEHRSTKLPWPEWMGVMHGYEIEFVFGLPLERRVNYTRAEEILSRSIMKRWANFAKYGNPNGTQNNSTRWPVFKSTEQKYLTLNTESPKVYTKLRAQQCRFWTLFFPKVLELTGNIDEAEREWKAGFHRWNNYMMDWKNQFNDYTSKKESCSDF
Sequence of acetylcholinesterase (AChE), electric eel, type VI-S (O42275 24-633): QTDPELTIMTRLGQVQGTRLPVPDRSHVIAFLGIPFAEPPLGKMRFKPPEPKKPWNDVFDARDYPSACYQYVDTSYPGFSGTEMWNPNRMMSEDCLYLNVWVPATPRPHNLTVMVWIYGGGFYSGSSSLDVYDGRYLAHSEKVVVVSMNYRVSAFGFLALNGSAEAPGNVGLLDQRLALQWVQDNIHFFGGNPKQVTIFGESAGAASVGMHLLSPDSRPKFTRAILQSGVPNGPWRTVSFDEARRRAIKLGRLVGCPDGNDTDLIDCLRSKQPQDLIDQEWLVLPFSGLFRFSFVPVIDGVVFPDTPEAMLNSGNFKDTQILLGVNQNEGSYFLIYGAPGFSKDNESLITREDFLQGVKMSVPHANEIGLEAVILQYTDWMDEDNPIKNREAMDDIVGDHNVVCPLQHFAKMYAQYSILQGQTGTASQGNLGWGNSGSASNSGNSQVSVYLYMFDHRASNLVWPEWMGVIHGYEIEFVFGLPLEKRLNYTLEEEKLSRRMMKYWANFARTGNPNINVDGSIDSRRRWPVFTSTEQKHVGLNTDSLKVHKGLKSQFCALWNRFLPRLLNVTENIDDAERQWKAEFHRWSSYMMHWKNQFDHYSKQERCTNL

In the case of `CC(=O)c1c(O)cc(O)cc1C[C@@H]1Cc2cc(O)cc(O)c2C(=O)O1` [feralolide], the pIC50 (commonly the negative decadic logarithm of the IC50, by convention in mol/L) is 3.82 in experiment [1] and 3.80 in experiment [2].

The values are drawn from PMC9854566, “Antiamnesic Effects of Feralolide Isolated from Aloe vera Resin Miller against Learning Impairments Induced in Mice” (Antioxidants, 2023).
